Test results: patent US20260306527A1, “PRMT INHIBITOR COMPOUNDS AND THE USES THEREOF” (Purdue Research Foundation, priority 2023, published 2026)
Like-named read-outs stand apart in the source and are kept apart here.

Key:
Format in all cases: biochemical
[1] = molecular target: T1, PRMT1 (Homo sapiens, UniProt Q99873); assay: SAHH-coupled fluorescence assay, inhibition of PRMT1; settings: for IC50: read-out: IC50[μM] | PRMT1
T1 construct: made in house
In short: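 PRMT1 (0.1 μM) was run with 10 μM AdoMet, 5 μM SAHH and 10 μM ThioGlo4 in 2.5 mM HEPES pH 7.0, 25 mM NaCl, 25 μM EDTA, 50 μM TCEP and 0.01% Triton X-100. Fluorescence (ex 400/em 465 nm) was monitored for 15 min. Assays were done in duplicate.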

[2] = molecular target: T2, PRMT4 (Homo sapiens, UniProt Q86X55); assay: radioactive assay (Reaction Biology Corp.), inhibition of PRMT4
T2 sequence (Q86X55 1-608): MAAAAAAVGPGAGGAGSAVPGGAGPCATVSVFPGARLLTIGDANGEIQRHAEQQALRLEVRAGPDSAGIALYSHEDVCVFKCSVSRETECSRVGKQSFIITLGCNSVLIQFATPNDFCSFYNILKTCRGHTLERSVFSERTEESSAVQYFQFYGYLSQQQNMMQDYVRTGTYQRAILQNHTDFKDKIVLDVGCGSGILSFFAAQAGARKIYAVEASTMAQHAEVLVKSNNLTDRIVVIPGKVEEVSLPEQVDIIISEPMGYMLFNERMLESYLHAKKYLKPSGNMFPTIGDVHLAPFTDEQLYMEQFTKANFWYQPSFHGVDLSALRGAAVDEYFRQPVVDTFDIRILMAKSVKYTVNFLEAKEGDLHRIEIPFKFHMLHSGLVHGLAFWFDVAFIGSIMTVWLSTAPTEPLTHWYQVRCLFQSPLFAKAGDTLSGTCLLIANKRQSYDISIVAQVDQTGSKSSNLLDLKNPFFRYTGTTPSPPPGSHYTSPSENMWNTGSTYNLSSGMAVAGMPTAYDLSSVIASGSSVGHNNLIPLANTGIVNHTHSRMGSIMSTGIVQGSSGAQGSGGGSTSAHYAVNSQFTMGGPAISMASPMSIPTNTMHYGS
Method: (§1) Next, the inhibition activity of the library was investigated for five PRMT members from type I PRMTs.
(§2) The PRMT 4, 6 and 8 methylation assays were performed by Reaction Biology corp.

[3] = system: PRMT4; assay: as above
Method: as §1, §2

[4] = molecular target: PRMT6 (Homo sapiens, UniProt Q96LA8); assay: radioactive assay (Reaction Biology Corp.), inhibition of PRMT6
Method: as §1, §2

[5] = molecular target: PRMT8 (Homo sapiens, UniProt Q9NR22); assay: radioactive assay (Reaction Biology Corp.), inhibition of PRMT8
Method: as §1, §2

[6] = molecular target: PRMT3 (Homo sapiens, UniProt O60678); assay: SAHH-coupled fluorescence assay, inhibition of PRMT3; design: PRMT3 (residues 211-531) was cloned into the pET28a-MHL expression vector; tag of the pET28a-MHL vector (not described); made in house; host or cells: Escherichia coli BL21(DE3)
In short: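 Coupled SAHH/ThioGlo4 fluorescence read-out (ex 380 nm, em 505 nm) of PRMT3 (0.25 μM) methylation with 30 μM AdoMet and 5 μM SAHH. Buffer was 20 mM Tris pH 7.5 with 0.01% Triton X-100. Run in duplicate.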

[7] = system: PRMT3; assay: as above
Method: A fluorescence-based SAHH-coupled assay was applied to study the inhibition activity of all synthesized compounds on PRMT 1 and 3.
(§3) The PRMT3 methylation assay was performed under the following conditions in a final well volume of 100 μL: 20 mM Tris (pH=7.5), 0.01% Triton X-100, 5 μM SAHH, 0.25 μM PRMT3, 30 μM AdoMet, and 15 μM ThioGlo4. […] Fluorescence was monitored on a BMG CLARIOstar microplate reader with excitation 380 nm and emission 505 nm. Data were processed by using GraphPad Prism software 8.0. All experiments were performed in duplicate.
as §1
as §3, with “8.0.” for “8.0. All experiments were performed in duplicate.”

Chain of PRMT8 (Q9NR22 whole entry, species assumed): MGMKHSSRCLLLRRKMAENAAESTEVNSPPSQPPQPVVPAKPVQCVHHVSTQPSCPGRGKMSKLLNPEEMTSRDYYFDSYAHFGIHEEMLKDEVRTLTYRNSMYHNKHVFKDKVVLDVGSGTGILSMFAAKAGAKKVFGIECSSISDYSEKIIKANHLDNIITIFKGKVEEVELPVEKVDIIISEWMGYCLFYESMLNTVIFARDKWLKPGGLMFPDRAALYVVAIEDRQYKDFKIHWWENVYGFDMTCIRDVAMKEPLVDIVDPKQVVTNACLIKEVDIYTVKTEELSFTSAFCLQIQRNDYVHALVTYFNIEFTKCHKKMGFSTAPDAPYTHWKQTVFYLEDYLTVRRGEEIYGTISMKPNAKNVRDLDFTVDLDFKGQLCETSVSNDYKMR
Chain of PRMT3 (Homo sapiens, UniProt O60678) (O60678 211-531): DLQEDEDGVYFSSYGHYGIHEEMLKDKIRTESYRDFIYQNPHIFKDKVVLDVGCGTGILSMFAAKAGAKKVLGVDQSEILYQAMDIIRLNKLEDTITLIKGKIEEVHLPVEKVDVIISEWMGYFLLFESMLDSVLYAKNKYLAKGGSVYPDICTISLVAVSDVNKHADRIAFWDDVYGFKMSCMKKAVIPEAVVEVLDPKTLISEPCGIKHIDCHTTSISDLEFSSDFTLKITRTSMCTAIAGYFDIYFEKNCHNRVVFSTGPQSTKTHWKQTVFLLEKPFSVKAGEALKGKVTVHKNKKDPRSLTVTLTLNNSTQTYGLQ
Chain of PRMT6 (Q96LA8 whole entry, species assumed): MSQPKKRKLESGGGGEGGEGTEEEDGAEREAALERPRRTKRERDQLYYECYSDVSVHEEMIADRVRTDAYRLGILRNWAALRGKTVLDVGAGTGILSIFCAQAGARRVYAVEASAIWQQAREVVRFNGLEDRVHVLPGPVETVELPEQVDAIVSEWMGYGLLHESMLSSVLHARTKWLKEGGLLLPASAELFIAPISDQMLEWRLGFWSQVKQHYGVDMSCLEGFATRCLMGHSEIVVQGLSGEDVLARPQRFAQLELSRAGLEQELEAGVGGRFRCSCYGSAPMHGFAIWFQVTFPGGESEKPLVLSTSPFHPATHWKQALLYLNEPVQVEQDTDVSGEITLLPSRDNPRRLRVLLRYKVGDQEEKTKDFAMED
T1 sequence (Q99873 whole entry, species assumed): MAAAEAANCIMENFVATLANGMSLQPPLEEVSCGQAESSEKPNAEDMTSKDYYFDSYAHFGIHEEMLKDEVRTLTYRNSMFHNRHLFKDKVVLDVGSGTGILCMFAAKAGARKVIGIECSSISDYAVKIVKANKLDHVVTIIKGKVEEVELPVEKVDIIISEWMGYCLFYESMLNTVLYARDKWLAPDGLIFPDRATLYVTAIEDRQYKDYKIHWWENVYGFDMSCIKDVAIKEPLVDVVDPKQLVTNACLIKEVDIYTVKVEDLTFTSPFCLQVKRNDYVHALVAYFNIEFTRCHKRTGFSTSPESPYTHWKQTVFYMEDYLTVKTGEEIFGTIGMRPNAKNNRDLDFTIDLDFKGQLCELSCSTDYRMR

inhibition at 10 µM [1] [%]	inhibition at 10 µM [2] [%]	IC50 [3] [µM]	inhibition at 10 µM [4] [%]	inhibition at 10 µM [5] [%]	inhibition at 10 µM [6] [%]	IC50 ([7]; read-out: IC50 [µM] | PRMT3) [µM]	PRMT6 inhibition ([4]; 10 μM)	fold reduction of PRMT3 inhibition vs YD1113 ([6]; vs YD1113) [fold]	IC50 [1] [µM]	IC50 ([7]; read-out: IC50[μM] | PRMT3) [µM]	inhibition at 70 µM ([6]; 70 μM) [%]	fold decrease in PRMT3 inhibition ([6]; 1d (2C-atom linker) vs II710) [fold]	SMILES
28	97	49 ± 5.7	65	39	24								Nc1ncnc2c1ncn2[C@@H]1O[C@H](CSCCCNCc2cccc(-c3cncnc3)c2)[C@@H](O)[C@H]1O [Compound 10s]
12	96	0.021 ± 0.0028	-11	-13	25								Nc1ncnc2c1ncn2[C@@H]1O[C@H](CSCCNC(=O)NCc2ccccc2Br)[C@@H](O)[C@H]1O [Compound 7h]
5	98	9.3 ± 1.1	31	36	13								Nc1ncnc2c1ncn2[C@@H]1O[C@H](CSCCNCc2cccc(-c3cncnc3)c2)[C@@H](O)[C@H]1O [Compound 10g]
9	84		28	12	86	1.9 ± 0.12	inactive to PRMT6	4					Nc1ncnc2c1ncn2[C@@H]1O[C@H](CSCCNC(=O)Nc2ccccc2)[C@@H](O)[C@H]1O [Compound 7f, 1-(2-((((2S,3S,4R,5R)-5-(6-amino-9H-purin-9-yl)-3,4-dihydroxytetrahydrofuran-2-yl)methyl)thio)ethyl)-3-phenylurea]
68	100		67	81	26				4.9 ± 0.11	18 ± 2.1			N=C(NCCSC[C@H]1O[C@@H](n2cnc3c(N)ncnc32)[C@H](O)[C@@H]1O)Nc1cccc(-c2cccc(F)c2)c1 [Compound 6d]
7	76	3.6 ± 0.42	67	12	13	70 ± 11					50		Nc1ncnc2c1ncn2[C@@H]1O[C@H](CSCCCNC(=O)NCc2ccccc2)[C@@H](O)[C@H]1O [Compound 7p, 1-(3-((((2S,3S,4R,5R)-5-(6-amino-9H-purin-9-yl)-3,4-dihydroxytetrahydrofuran-2-yl)methyl)thio)propyl)-3-benzylurea]
89	100		91	97	62				0.21 ± 0.054	5.9 ± 0.34			N=C(NCCSC[C@H]1O[C@@H](n2cnc3c(N)ncnc32)[C@H](O)[C@@H]1O)Nc1cccc(-c2ccc(Cl)cc2)c1 [Compound 6a]
92	100		97	100	76				0.2 ± 0.031	1.8 ± 0.23			N=C(NCCCSC[C@H]1O[C@@H](n2cnc3c(N)ncnc32)[C@H](O)[C@@H]1O)Nc1cccc(-c2ccc(Cl)cc2)c1 [Compound 6f]
83	100		91	94	42				1.8 ± 0.17	12 ± 0.83			N=C(NCCSC[C@H]1O[C@@H](n2cnc3c(N)ncnc32)[C@H](O)[C@@H]1O)Nc1cccc(-c2ccc(C(F)(F)F)cc2)c1 [Compound 6b]
88	100		93	96	22				0.9 ± 0.17	14 ± 3.1			N=C(NCCCSC[C@H]1O[C@@H](n2cnc3c(N)ncnc32)[C@H](O)[C@@H]1O)Nc1cccc(-c2cccnc2)c1 [Compound 6m]
92	100		97	99	58				0.17 ± 0.022	5.5 ± 1			N=C(NCCCSC[C@H]1O[C@@H](n2cnc3c(N)ncnc32)[C@H](O)[C@@H]1O)Nc1cccc(-c2ccc(F)c(O)c2)c1 [Compound 6l]
102	100		96	95	5				0.45 ± 0.11	25 ± 5			N=C(NCCCSC[C@H]1O[C@@H](n2cnc3c(N)ncnc32)[C@H](O)[C@@H]1O)Nc1cccc(-c2cncnc2)c1 [Compound 6o]
94	99		99	98	54				0.17 ± 0.011	7.2 ± 0.61			N=C(NCCCSC[C@H]1O[C@@H](n2cnc3c(N)ncnc32)[C@H](O)[C@@H]1O)Nc1ccccc1 [Compound 5d]
14	100	1.2 ± 0.18	46	44	1								Nc1ncnc2c1ncn2[C@@H]1O[C@H](CSCCNCc2cccc(-c3ccoc3)c2)[C@@H](O)[C@H]1O [Compound 10d]
88	100		97	99	57				0.25 ± 0.051	5.7 ± 0.68			N=C(NCCCSC[C@H]1O[C@@H](n2cnc3c(N)ncnc32)[C@H](O)[C@@H]1O)Nc1cccc(-c2ccc(C(F)(F)F)cc2)c1 [Compound 6h]
84	100		76	82	48				1.5 ± 0.12	8.3 ± 0.34			N=C(NCCSC[C@H]1O[C@@H](n2cnc3c(N)ncnc32)[C@H](O)[C@@H]1O)Nc1cccc(-c2ccoc2)c1 [Compound 6c]
86	99		93	76	57	33 ± 4.3			1 ± 0.065			3	N=C(NCCSC[C@H]1O[C@@H](n2cnc3c(N)ncnc32)[C@H](O)[C@@H]1O)NCc1ccccc1 [Compound 5a]
95	100		99	98	47				0.23 ± 0.013	8.6 ± 0.58			N=C(NCCCSC[C@H]1O[C@@H](n2cnc3c(N)ncnc32)[C@H](O)[C@@H]1O)Nc1cccc(-c2ccc(O)cc2)c1 [Compound 6e]
95	100		98	99	38				0.13 ± 0.006	8.68 ± 2.9			N=C(NCCSC[C@H]1O[C@@H](n2cnc3c(N)ncnc32)[C@H](O)[C@@H]1O)Nc1cccc(I)c1 [Compound 5c]
